These results are taken from PubChem BioAssay (NCI).

In general, TGI refers to the concentration at which net growth stops. The term GI50 denotes the concentration at which growth is held to half of that of the control.

SMILES strings stand for the structures. “And” between values parts separate entries of the source, which are not always exact repeats. Equal values may be shown once.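 Each compound was tested at five concentrations against cells in 96-well plates for 48 hours. GI50 is the concentration that inhibits growth by half. TGI: total growth inhibition.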 Bounds are passed on as bounds.

Some test systems named below: ACHN renal; IGROV1 ovarian; NCI-H460 lung; MOLT-4 leukemia; A498 renal; SK-MEL-28 melanoma; HCC-2998 colon; MALME-3M melanoma; M14 melanoma; COLO 205 colon.
Test in all cases: DTP human tumour cell line panel, 48 h

Regarding `COc1ccc(C2=NN(c3ccccc3)C[N+](c3ccc(OC)cc3)=N2)cc1`, the TGI in the experiment with ACHN renal is above 100 µM; in the experiment on IGROV1 ovarian, above 100 µM; in the experiment with NCI-H460 lung, above 100 µM; with MOLT-4 leukemia, 90.7 µM; with A498 renal it was above 100 µM; with SK-MEL-28 melanoma, above 100 µM. For the same compound, the TGI with HCC-2998 colon was above 100 µM; in the experiment on MALME-3M melanoma, 47.1 µM.
For `CN(C)c1ccc2nc3ccc(=[N+](C)C)cc-3sc2c1`, the GI50 with ACHN renal is 2.65 µM and 3.04 µM; in the experiment on IGROV1 ovarian, 1.18 µM and 2.03 µM; in the experiment with M14 melanoma it was 0.337 µM and 0.407 µM; in the experiment with NCI-H460 lung, 0.431 µM and 1.03 µM; with COLO 205 colon it was 0.497 µM and 0.47 µM; in the experiment with MOLT-4 leukemia it was 1.11 µM and 0.934 µM. Also, the GI50 is 4.12 µM and 6.21 µM in the experiment on A498 renal; 1.52 µM and 4.41 µM in the experiment with SK-MEL-28 melanoma; 0.745 µM and 6.32 µM with HCC-2998 colon; 0.422 µM and 0.848 µM in the experiment with MALME-3M melanoma. The total growth inhibition concentration (TGI) in the experiment with ACHN renal is 15.3 µM and 24.1 µM; with IGROV1 ovarian, 11.5 µM and 6.47 µM; in the experiment on M14 melanoma it was 1.49 µM and 3.4 µM; in the experiment with NCI-H460 lung it was 14.9 µM and > 37.5 µM; in the experiment on COLO 205 colon, 1.96 µM and 5.3 µM; with MOLT-4 leukemia, > 27.6 µM and 15.4 µM. Besides, the total growth inhibition concentration (TGI) in the experiment on A498 renal is 22 µM and 55.8 µM; in the experiment with SK-MEL-28 melanoma, 4.69 µM and 18.2 µM; in the experiment on HCC-2998 colon, 17.8 µM and 36 µM; with MALME-3M melanoma it was 1.77 µM and 3.57 µM.
On to `CC(C)(O)CC(=O)NCCn1ccc2ncnc(Nc3ccc(Oc4cccc(C(F)(F)F)c4)c(Cl)c3)c21`, for which the GI50 was 1.15 µM in the experiment with ACHN renal; 1.26 µM with IGROV1 ovarian; 4.17 µM with M14 melanoma; 3.37 µM in the experiment with NCI-H460 lung; 3.5 µM in the experiment on COLO 205 colon; 3.54 µM in the experiment on MOLT-4 leukemia. In addition, the GI50 in the experiment with A498 renal was 2.9 µM; in the experiment with SK-MEL-28 melanoma, 4.43 µM; with HCC-2998 colon, 3.85 µM. Moreover, the concentration for total growth inhibition (TGI) with ACHN renal, in the experiment with IGROV1 ovarian, in the experiment with M14 melanoma, in the experiment on NCI-H460 lung, in the experiment with COLO 205 colon and in the experiment with MOLT-4 leukemia was above 10 µM in each case. For the same compound, the TGI with A498 renal, in the experiment on SK-MEL-28 melanoma, in the experiment on HCC-2998 colon and in the experiment on MALME-3M melanoma was above 10 µM throughout.
`COc1ccc(OC)c(NC(=O)CCC/C(CC(=O)c2ccc(O)c(OC)c2)=N\Nc2ccc([N+](=O)[O-])cc2)c1`: the TGI with ACHN renal, in the experiment with IGROV1 ovarian, with M14 melanoma, with NCI-H460 lung, in the experiment with COLO 205 colon and in the experiment with MOLT-4 leukemia was above 100 µM in each case. Further, the total growth inhibition concentration (TGI) in the experiment on A498 renal, in the experiment with HCC-2998 colon and in the experiment on MALME-3M melanoma was above 100 µM throughout.
For the compound `Cc1ccccc1NC(=O)C(=O)CC(=O)c1c(C)n([O-])c2ccccc2[n+]1=O`, the TGI in the experiment with ACHN renal, with IGROV1 ovarian, in the experiment on M14 melanoma, in the experiment with NCI-H460 lung, in the experiment on COLO 205 colon and in the experiment with A498 renal was above 100 µM throughout. Moreover, the concentration for total growth inhibition (TGI) with SK-MEL-28 melanoma, with HCC-2998 colon and in the experiment on MALME-3M melanoma was above 100 µM throughout.
Turning to `CCOC(=O)C(=Cc1cccnc1C)C(=O)OCC`, the TGI in the experiment on ACHN renal is 29.5 µM; in the experiment on IGROV1 ovarian it was 25 µM; with M14 melanoma, 24.2 µM; in the experiment with NCI-H460 lung, 35.8 µM; in the experiment on COLO 205 colon, 18.4 µM; in the experiment on MOLT-4 leukemia it was 46.9 µM. In addition, the TGI with A498 renal is 31 µM; in the experiment on SK-MEL-28 melanoma it was 36.5 µM; in the experiment with MALME-3M melanoma, 26.8 µM.
With `COc1ccc(OC)c(-c2c(C#N)c(N)nc(N3CCOCC3)c2C#N)c1`, the GI50 in the experiment with ACHN renal was 67.9 µM; in the experiment on IGROV1 ovarian it was 73.9 µM; in the experiment with M14 melanoma, above 100 µM; in the experiment with NCI-H460 lung it was above 100 µM; in the experiment on COLO 205 colon, above 100 µM; in the experiment with MOLT-4 leukemia, above 100 µM. Besides, the figures for the GI50 in the experiment on A498 renal, with SK-MEL-28 melanoma and in the experiment on HCC-2998 colon were 52.6 µM, 82.8 µM and 72.7 µM, respectively. Also, the concentration for total growth inhibition (TGI) with ACHN renal, in the experiment with IGROV1 ovarian, in the experiment on M14 melanoma, in the experiment on NCI-H460 lung, with COLO 205 colon and with MOLT-4 leukemia was above 100 µM throughout. Besides, the TGI in the experiment on A498 renal, in the experiment with SK-MEL-28 melanoma and in the experiment on HCC-2998 colon was above 100 µM throughout.
`C/C=C(/COC(C)=O)C(=O)OC1C=C(C=O)C(C)(C)C=C1C` (configuration not stated): the concentration for total growth inhibition (TGI) in the experiment with ACHN renal, with IGROV1 ovarian, with M14 melanoma, in the experiment on NCI-H460 lung, in the experiment with COLO 205 colon and in the experiment on A498 renal was above 100 µM throughout. In addition, the TGI in the experiment with SK-MEL-28 melanoma, in the experiment on HCC-2998 colon and in the experiment with MALME-3M melanoma was above 100 µM each time.
With `N#CC(c1nc2ccccc2nc1Cl)S(=O)(=O)c1ccccc1` (configuration not stated), the TGI in the experiment on ACHN renal, in the experiment with M14 melanoma, in the experiment on NCI-H460 lung, in the experiment with COLO 205 colon, in the experiment with MOLT-4 leukemia and in the experiment on A498 renal was above 100 µM in each case. For the same compound, the total growth inhibition concentration (TGI) with SK-MEL-28 melanoma, in the experiment on HCC-2998 colon and in the experiment with MALME-3M melanoma was above 100 µM throughout.
As for `COc1ccc(C(C#N)Cc2cc(OC)c(OC)c(OC)c2)cc1` (configuration not stated), the TGI is above 100 µM with ACHN renal; above 100 µM with IGROV1 ovarian; above 100 µM in the experiment with M14 melanoma; above 100 µM in the experiment with NCI-H460 lung; 49.3 µM in the experiment with COLO 205 colon; above 100 µM in the experiment on MOLT-4 leukemia. Also, the concentration for total growth inhibition (TGI) was 73.1 µM in the experiment with A498 renal, above 100 µM with SK-MEL-28 melanoma and above 100 µM with MALME-3M melanoma.
In the case of `O=C(COc1ccc(/C=C2\Oc3ccccc3C2=O)cc1)Nc1nc2c(s1)CCCC2`, the GI50 is 17.4 µM in the experiment with ACHN renal; 0.0164 µM in the experiment on IGROV1 ovarian; 16.1 µM in the experiment with M14 melanoma; 30.3 µM with NCI-H460 lung; above 73.2 µM with COLO 205 colon; 30.6 µM in the experiment with A498 renal. Further, the GI50 with SK-MEL-28 melanoma was 27.8 µM; in the experiment on HCC-2998 colon, 16 µM; in the experiment on MALME-3M melanoma, 1.25 µM. Moreover, the concentration for total growth inhibition (TGI) with ACHN renal is above 100 µM; in the experiment with IGROV1 ovarian, 0.0361 µM; in the experiment with M14 melanoma, above 100 µM; with NCI-H460 lung it was above 100 µM; in the experiment with COLO 205 colon, above 100 µM; with A498 renal, 98.2 µM. Further, the figures for the TGI in the experiment with SK-MEL-28 melanoma, in the experiment on HCC-2998 colon and with MALME-3M melanoma were above 68.7 µM, 52.3 µM and above 78.5 µM, respectively.
